Assay [1] concerns human breast cancer cell line MCF-7. The experiment in a line: SRB cytotoxicity assay, MCF-7. It is filed as cell-based. To be noted: MCF7, MCF-7, SRB assay, 48 h. The procedure:
(§1) Human lung cancer cell line NCI-H460 (HTB-177), human breast cancer cell line MCF-7 (HTB-2), human cervical cancer cells HeLa (CCL-2), human liver cancer cell line HepG2 (HB-8065) and normal kidney epithelial cell line (LLCPK1) were purchased from the American Type Culture Collection (Manassas, Rockville). Cells were cultured at 37°C and 5% CO2 in Eagle’s minimal essential medium supplemented with 10% (v/v) FBS (Sigma), 2 mM L-glutamine (Sigma), 20 mM HEPES (Sigma), 0.025 μg ml^−1 amphotericin B (Sigma), 100 IU ml^−1 penicillin G (Sigma) and 100 μg ml^−1 streptomycin (Sigma). Cells used in this study were between passages 4 and 20.
(§2) The experiment was conducted as previously outlined, with certain variations. Cells were seeded at a density of 10 000 cells per well (MCF-7, Hep G2, HeLa) or 7500 cells per well (NCI-H460) in 96-well plates, grown for 24 h, and subsequently treated with compounds at varying doses for 48 h. Treated cells were fixed with cold 50% (w/v) trichloroacetic acid (Merck) solution for 1−3 h, subsequently washed and stained with 0.2% (w/v) SRB (Sigma) for 20 min. Following five washes with 1% acetic acid (Merck), the protein-bound dye was solubilized in a 10 mM Tris base solution (Promega). Optical density values were measured using a 96-well microtiter plate reader (Synergy HT, Biotek Instruments) at wavelengths of 492 and 620 nm. The growth inhibition percentage (Inh %) was determined using the formula: Inh % = (1 − [ODt/ODc]) × 100, where ODt and ODc represent the optical density values of the test and control samples, respectively. Camptothecin served as the positive control.
In general terms: The SRB assay estimates cell density from bound dye.

The nature of assay [2]: DPPH radical scavenging assay. The class given is biochemical. To be noted: read-out: SC50 (the source's name). The procedure: The 1,1-diphenyl−2-picrylhydrazyl (DPPH) assay is a technique employed to assess the antioxidant potential of a chemical by measuring its efficacy in scavenging free radicals. DPPH produces stable free radicals in methanol. Upon exposure to an antioxidant, DPPH experiences a colour transformation from purple to yellow, which is quantified using an ELISA reader at a wavelength of 517 nm. The experiment is performed in a 96-well plate, where a 150 µM DPPH solution in 80% methanol is combined with test samples at different concentrations. The DPPH radical scavenging activity percentage is computed using the formula SC% = 1 − [ODt/ODc] × 100 (%), where SC50 (radical scavenging concentration of 50%) is the sample concentration necessary to eliminate 50% of DPPH radicals, as ascertained from the standard calibration curve. Trolox serves as a positive control in the experiment.
On the technique in general: The DPPH test is a chemical assay of radical scavenging.

The test system of assay [3] is human liver cancer cell line HepG2. The experiment in a line: SRB cytotoxicity assay, HepG2. The class given is cell-based. To be noted: 48 h. The procedure: as §1, §2
For assay [4], the system named is human cervical cancer cells HeLa. In words: SRB cytotoxicity assay, HeLa. Conditions: 48 h. The class given is cell-based. The procedure: as §1, §2
For assay [5], the system named is normal kidney epithelial cell line (LLCPK1). The experiment in a line: SRB cytotoxicity assay, normal cells LLCPK1. The class given is cell-based. To be noted: Sus scrofa, LLC-PK1. The procedure: as §1, §2
Assay [6] deals with Bacillus subtilis. In words: Broth microdilution MIC, B. subtilis. The class given is cell-based. The procedure: The three bacteria—Escherichia coli (E. coli), methicillin-resistant Staphylococcus aureus (MRSA) and Bacillus subtilis (B. subtilis), and two fungi: Candida albicans (C. albicans) and Trichophyton mentagrophytes (T. mentagrophytes) were used in this study. The clinical isolates were obtained in 2019 from the Faculty of Biology and Biotechnology, University of Science, Vietnam National University.
All coumarin derivatives were evaluated for in vitro antibacterial and antifungal activities, and the minimum inhibitory concentration (MIC) was ascertained in µM using the broth microdilution method. The test organisms were cultivated and cultured for 48 h at 37°C. The 2-day-old bacterial cultures were emulsified in a small volume of Muller Hinton broth (MHB) and cultured at 37°C overnight to reach the logarithmic growth phase. The turbidity of each inoculum was subsequently corrected to McFarland standard no. 0.5 by the additional incorporation of MHB, resulting in an inoculum concentration of 1.5 × 10^8 CFU ml^−1. One hundred microlitres of MHB were dispensed into all wells of the 96-well microtiter plates, excluding the first column A. Subsequently, 200 µl of the working solution for each examined chemical was allocated to column A of each plate. […] The MIC was determined as the minimal concentration of substances that inhibited the colour change.
(In general: In broth dilution the organism is exposed to a series of concentrations in liquid medium.)

≈ marks a conversion by molar mass, not a printed value.

From publication PMC12520770, “Synthesis of a novel coumarin via the Mannich reaction: in vitro and in silico evaluation of anti-cancer, antimicrobial and antioxidant activities” (Royal Society Open Science, 2025) come the findings set out here.

Broadly, the IC50 is the point on the concentration scale where inhibition reaches its midpoint. One may read the MIC as the lowest concentration found to suppress growth. Read a low MIC as inhibition by little substance.

As for `O=c1oc2ccccc2c(O)c1CNc1ccc(S(=O)(=O)O)cc1` [compound 2i, 4-{[(4-Hydroxy-2-oxo−2H-chromen-3-yl)methyl]amino}benzenesulfonic acid], the IC50 in assay [1] is 85.2 µM; in assay [3], 75.2 µM; in assay [4], 80.2 µM. Besides, the EC50 in assay [2] came to 7.36 ± 0.18 µM.

As to `O=c1oc2ccccc2c(O)c1CN1CCOCC1` [2g, 4-Hydroxy-3-(morpholinomethyl)-2H-chromen-2-one], the 50% inhibitory concentration (IC50) in assay [1] worked out at 42.7 µM; in assay [3], 50.2 µM; in assay [4], 31.5 µM. In assay [2], the EC50 was 72.2 µM.

Turning to `CCCNCc1c(O)c2ccccc2oc1=O` [2h, 4-Hydroxy-3-[(propylamino)methyl]-2H-chromen-2-one], the IC50 in assay [1] turned out to be 40.1 µM; in assay [3], 62.5 µM; in assay [4] it was 73.2 µM. The EC50 in assay [2] is 65.3 µM.

In the case of `N#Cc1ccc(NCc2c(O)c3ccccc3oc2=O)cc1` [compound 2d, 4-{[(4-Hydroxy-2-oxo-2H−chromen-3-yl)methyl]amino}benzonitrile], the concentration for half-maximal inhibition (IC50) came out at 94.8 µM in assay [5], 2.54 ± 0.12 µM in assay [1], 70.2 µM in assay [3] and 34.1 µM in assay [4]. Further, the EC50 in assay [2] was determined as 35.8 µM.

For `CC[C@@]1(O)C(=O)OCc2c1cc1n(c2=O)Cc2cc3ccccc3nc2-1` [camptothecin, reference compound], the IC50 in assay [1] came out at 3.76 ± 0.15 µM; in assay [3], 4.28 ± 0.201 µM; in assay [4] it was 2.38 ± 0.102 µM.

As to `O=c1oc2ccccc2c(O)c1CNC1CCCC1` [compound 2f, 3-[(Cyclopentylamino)methyl]-4-hydroxy-2H-chromen-2-one], the lowest concentration to inhibit growth in assay [6] (MIC) was 75 µM (≈ 19.4 µg/mL). For the same compound, the IC50 in assay [1] amounted to 54.2 µM; in assay [3], 49.7 µM; in assay [4], 57.3 µM. Also, the EC50 in assay [2] is 45.9 µM.

As for `Cc1c(C)c2c(c(C)c1O)CCC(C)(C(=O)O)O2` (stereo not shown) [Trolox, reference compound], the EC50 in assay [2] is 6.12 ± 0.15 µM.

Regarding `CNCc1c(O)c2ccccc2oc1=O` [compound 2a, 4-Hydroxy-3-[(methylamino)methyl]-2H-chromen-2-one], in assay [6], inhibition of growth (MIC) required 25 µM (≈ 5.13 µg/mL). For the same compound, the IC50 in assay [5] was found to be 94.6 µM; in assay [1] it was 52 µM; in assay [3], 8.57 ± 0.42 µM; in assay [4], 39.3 µM. Besides, in assay [2], the EC50 came to 62.5 µM.

For `O=C(O)c1ccc(NCc2c(O)c3ccccc3oc2=O)cc1` [2c, 4-{[(4-hydroxy-2-oxo-2H-chromen-3-yl)methyl]amino}benzoic acid], the IC50 in assay [1] amounted to 61.4 µM; in assay [3], 56.5 µM; in assay [4], 54.9 µM. Besides, in assay [2], the EC50 amounted to 59.7 µM.

In the case of `O=c1oc2ccccc2c(O)c1Cn1ccnc1` [2e, 3-[(1H-imidazol-1-yl)methyl]-4-hydroxy-2H-chromen-2-one], the IC50 in assay [1] is 30.4 µM; in assay [3], 34.2 µM; in assay [4], 34.2 µM. The EC50 in assay [2] worked out at 80.9 µM.

On to `O=c1oc2ccccc2c(O)c1CNc1ccccc1` [compound 2j, 4-Hydroxy-3-[(phenylamino)methyl]-2H-chromen-2-one], for which the concentration for half-maximal inhibition (IC50) in assay [1] was 95.5 µM; in assay [3], 68.1 µM; in assay [4], 84.7 µM. Also, the EC50 in assay [2] amounted to 53.3 µM.

Turning to `CC(C)NCc1c(O)c2ccccc2oc1=O` [compound 2b, 4-Hydroxy-3-[(isopropylamino)methyl]-2H-chromen-2-one], the IC50 is 97.3 µM in assay [5], 35.4 µM in assay [1], 73.2 µM in assay [3] and 5.23 ± 0.12 µM in assay [4]. In addition, in assay [2], the EC50 is 31.3 µM.
